Assay results from paper PMC5970065 (Biochimica et biophysica acta, 2018).

Target: myeloperoxidase (MPO) (Homo sapiens, UniProt P05164)
Assay type: biochemical

Chain of myeloperoxidase (MPO) (P05164 165-273): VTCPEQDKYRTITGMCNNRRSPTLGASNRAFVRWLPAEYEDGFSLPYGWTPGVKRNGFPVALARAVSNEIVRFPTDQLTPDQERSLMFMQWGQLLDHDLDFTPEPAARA
Chain of myeloperoxidase (MPO) (P05164 279-745): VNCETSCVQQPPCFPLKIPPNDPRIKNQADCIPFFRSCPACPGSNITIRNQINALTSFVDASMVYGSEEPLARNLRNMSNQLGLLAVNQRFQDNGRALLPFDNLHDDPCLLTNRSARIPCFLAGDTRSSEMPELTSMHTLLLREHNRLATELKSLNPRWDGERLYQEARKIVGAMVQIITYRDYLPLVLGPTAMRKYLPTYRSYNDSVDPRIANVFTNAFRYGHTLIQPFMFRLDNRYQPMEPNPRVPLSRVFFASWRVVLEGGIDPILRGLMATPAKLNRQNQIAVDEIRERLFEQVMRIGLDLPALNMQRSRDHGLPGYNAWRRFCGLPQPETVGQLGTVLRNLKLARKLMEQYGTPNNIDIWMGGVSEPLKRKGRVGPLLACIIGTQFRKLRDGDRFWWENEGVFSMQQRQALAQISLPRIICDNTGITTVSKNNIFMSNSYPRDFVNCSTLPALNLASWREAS

- IC50: 63.5 µM
Compound: COc1cc(CC(CO[C@@H]2O[C@H](CO)[C@@H](O)[C@H](O)[C@H]2O)C(CO[C@@H]2O[C@H](CO)[C@@H](O)[C@H](O)[C@H]2O)Cc2ccc(O)c(OC)c2)ccc1O (stereo partly shown) [LGM2605]
